Target: T1, PscE-PscG interaction (Pseudomonas aeruginosa, UniProt P95435+Q9I317)
T1 construct: made in house; host or cells: E. coli
Test: ELISA test of inhibition of the PscE-PscG interaction
Type: binding
Settings: for inhibition at 50 µM: 4 h, read-out: PscE-PscG at 50 μM; for inhibitory effect compared with clioquinol: ELISA test, 50 μM, Table 2; for PscE-PscG at 50 μM: inhibition by new synthetic analogues at 50 μM, PscG 2.2 μM, PscE solution 3 μM
Procedure: 50 μL of PscG protein at 1 μM (for screening libraries) or 2.2 μM (for screening newly synthesized molecules) is incubated in a NUNC 96-well plate for 8 h at 4° C. The wells are washed three times with 200 μL of 1× PBS/0.1% Tween20®. The wells are treated overnight at 4° C. with 200 μL of a 5% milk solution in 1× PBS/0.1% Tween20®. The solution is then discarded, and the plate is drained dry.
The test is carried out as follows:
Negative control (lowest signal level): 100 μL of buffer ([…] Tris-HCl, 250 mM NaCl, pH 8.0);
Positive control (highest signal level): 50 μL of buffer and 50 μL of a test solution at 25 (library screening) or 3 μM (screening of analogue molecules) of the PscE protein;
Test of the inhibitors: 40 μL buffer, 50 μL of a solution at 25 μM (library screening) or 3 μM (screening of analogue molecules) of PscE protein and 10 μL of the solution containing the inhibitor to be tested.
The solutions are left for 4 h at room temperature.
The wells are washed three times with 200 μL of 1× PBS/0.1% Tween20®. The anti-PscE antibody diluted to 1:2,000 in 1× PBS/0.1% Tween20®, 50 μL, is added and the whole is left 2 h at room temperature. The wells are washed three times with 200 μL of 1× PBS/0.1% Tween20®. The HRP-conjugated anti-mouse antibody is diluted to 1:5,000 in 1× PBS/0.1% Tween20® and 50 μL is added and left for 2 h at room temperature. The wells are washed three times with 200 μL of 1× PBS/0.1% Tween20®.
The ELISA test is developed by adding 50 μL of TMB reagent followed by incubation for 15 minutes at room temperature in the dark. The reaction is stopped by adding 50 μL of 2N HCl. The plate is read at 450 nm.

T1 sequence (Q9I317 whole entry): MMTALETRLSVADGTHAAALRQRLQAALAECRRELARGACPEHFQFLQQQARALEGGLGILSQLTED
T1 sequence (P95435 whole entry): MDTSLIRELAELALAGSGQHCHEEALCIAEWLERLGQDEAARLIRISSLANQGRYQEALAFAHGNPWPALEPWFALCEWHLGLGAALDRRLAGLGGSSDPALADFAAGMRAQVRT

SMILES | inhibition at 50 µM [%] | inhibitory effect compared with clioquinol | other results
[N-]=[N+]=NCCCCCCOCCCc1ccc[n+](CCCCOCCCc2cccnc2)c1 [molecule 19, 3-(3-(6-azidohexyloxy)propyl)-1-(4-(3-(pyridin-3-yl)propoxy)butyl)pyridinium chloride] | 19.8 | – | –
CC(=O)Oc1c(-c2cn(CCCCOCCCc3ccc[n+](CCCCCCOCCCc4cccnc4)c3)nn2)cc(Cl)c2cccnc12 [molecule 36, 3-(3-(4-(4-(8-acetoxy-5-chloroquinolin-7-yl)-1H-1,2,3-triazol-1-yl)butoxy)propyl)-1-(6-(3-(pyridin-3-yl)propoxy)hexyl)pyridinium chloride] | 54.2 | superior to clioquinol | –
CC(=O)Oc1c(-c2cn(CCCCCCOCCCc3ccc[n+](CCCCOCCCc4cccnc4)c3)nn2)cc(Cl)c2cccnc12 [molecule 37, 3-(3-(6-(4-(8-acetoxy-5-chloroquinolin-7-yl)-1H-1,2,3-triazol-1-yl)hexyloxy)propyl)-1-(4-(3-(pyridin-3-yl)propoxy)butyl)pyridinium chloride] | 92.5 | superior to clioquinol | –
[N-]=[N+]=NCCCCCCCCCCOCCCc1ccc[n+](CCCCCCOCCCc2cccnc2)c1 [molecule 24, 3-(3-(10-azidodecyloxy)propyl)-1-(6-(3-(pyridin-3-yl)propoxy)hexyl)pyridinium chloride] | 38.6 | – | –
[N-]=[N+]=NCCCCOCCCc1ccc[n+](CCCCOCCCc2cccnc2)c1 [molecule 17, 3-(3-(4-azidobutoxy)propyl)-1-(4-(3-(pyridin-3-yl)propoxy)butyl)pyridinium chloride] | – | – | PscE-PscG at 50 μM: no inhibition
[N-]=[N+]=NCCCCCCCCCCCCOCCCc1ccc[n+](CCCCCCCCOCCCc2cccnc2)c1 [molecule 31, 3-(3-(12-azidododecyloxy)propyl)-1-(8-(3-(pyridin-3-yl)propoxy)octyl)pyridinium chloride] | 82.9 | superior to clioquinol | –
[N-]=[N+]=NCCCCCCCCCCOCCCc1ccc[n+](CCCCCCCCCCOCCCc2cccnc2)c1 [molecule 30, 3-(3-(10-azidodecyloxy)propyl)-1-(10-(3-(pyridin-3-yl)propoxy)decyl)pyridinium chloride] | 52.8 | superior to clioquinol | –
CC(=O)Oc1c(-c2cn(CCCCCCCCCCOCCCc3ccc[n+](CCCCCCCCCCCCOCCCc4cccnc4)c3)nn2)cc(Cl)c2cccnc12 [molecule 50, 3-(3-(10-(4-(8-acetoxy-5-chloroquinolin-7-yl)-1H-1,2,3-triazol-1-yl)decyloxy)propyl)-1-(12-(3-(pyridin-3-yl)propoxy)dodecyl)pyridinium chloride] | 18.9 | – | –
CC(=O)Oc1c(-c2cn(CCCCCCCCCCCCOCCCc3ccc[n+](CCCCOCCCc4cccnc4)c3)nn2)cc(Cl)c2cccnc12 [molecule 44, 3-(3-(12-(4-(8-acetoxy-5-chloroquinolin-7-yl)-1H-1,2,3-triazol-1-yl)dodecyloxy)propyl)-1-(4-(3-(pyridin-3-yl)propoxy)butyl)pyridinium chloride] | 33.4 | – | –
CC(=O)Oc1c(-c2cn(CCCCCCCCCCOCCCc3ccc[n+](CCCCCCOCCCc4cccnc4)c3)nn2)cc(Cl)c2cccnc12 [molecule 42, 3-(3-(10-(4-(8-acetoxy-5-chloroquinolin-7-yl)-1H-1,2,3-triazol-1-yl)decyloxy)propyl)-1-(6-(3-(pyridin-3-yl)propoxy)hexyl)pyridinium chloride] | – | – | PscE-PscG at 50 μM: no inhibition
[N-]=[N+]=NCCCCCCOCCCc1ccc[n+](CCCCCCCCCCOCCCc2cccnc2)c1 [molecule 27, 3-(3-(6-azidohexyloxy)propyl)-1-(10-(3-(pyridin-3-yl)propoxy)decyl)pyridinium chloride] | 39.6 | – | –
O=C(O)CN(CCN(CC(=O)O)CC(=O)O)CCN(CC(=O)O)CC(=O)O [Pentetic acid, reference compound] | – | – | % inhibition PscE-PscG at 50 μm (primary screening of libraries, 50 μm compound, PscG 1 μM, PscE solution 25 μM): 94%
